Measurements taken from PubChem BioAssay AID248 (DTP/NCI, 2004).
Values joined by “and” are separate entries in the source; they are usually repeats but may differ in a detail not shown here. Equal values may be shown once. Inconclusive results and toxic doses are left out. Cut-off read from the data, not from the text of the source: active = T/C of 150% or more; inactive = T/C below 125%.

Test system: L1210 leukemia ip in BDF1 mice, survival T/C
Test: NCI In Vivo Anticancer Drug Screen. Data for tumor model L1210 Leukemia (intraperitoneal) in B6D2F1 (BDF1) mice
Conditions: endpoint: mean survival time, higher = longer survival
In short: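 Antitumor effect is assessed in tumor-bearing animals. Survival in the compound arm is compared with a vehicle-dosed control arm and expressed as their quotient.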

[1] = dose: 50.0 mg/kg/injection, schedule: Q01DX001 (ip), vehicle: saline
[2] = dose: 100.0 mg/kg/injection, schedule: Q01DX001 (ip), vehicle: saline
[3] = dose: 200.0 mg/kg/injection, schedule: Q01DX001 (ip), vehicle: saline
[4] = dose: 100.0 mg/kg/injection, schedule: Q01DX009 (ip), vehicle: saline with Tween-80
[5] = dose: 100.0 mg/kg/injection, schedule: Q04DX003 (ip), vehicle: saline with Tween-80
[6] = dose: 200.0 mg/kg/injection, schedule: Q01DX009 (ip), vehicle: saline with Tween-80
[7] = dose: 200.0 mg/kg/injection, schedule: Q04DX003 (ip), vehicle: saline with Tween-80
[8] = dose: 400.0 mg/kg/injection, schedule: Q04DX003 (ip), vehicle: saline with Tween-80
[9] = dose: 100.0 mg/kg/injection, schedule: Q01DX009 (ip), vehicle: Klucel (hydroxypropylcellulose) (HPC)
[10] = dose: 100.0 mg/kg/injection, schedule: Q04DX003 (ip), vehicle: Klucel (hydroxypropylcellulose) (HPC)
[11] = dose: 200.0 mg/kg/injection, schedule: Q01DX009 (ip), vehicle: Klucel (hydroxypropylcellulose) (HPC)
[12] = dose: 200.0 mg/kg/injection, schedule: Q04DX003 (ip), vehicle: Klucel (hydroxypropylcellulose) (HPC)
[13] = dose: 400.0 mg/kg/injection, schedule: Q01DX009 (ip), vehicle: Klucel (hydroxypropylcellulose) (HPC)
[14] = dose: 400.0 mg/kg/injection, schedule: Q04DX003 (ip), vehicle: Klucel (hydroxypropylcellulose) (HPC)
[15] = dose: 100.0 mg/kg/injection, schedule: Q04DX003 (ip), vehicle: saline
[16] = dose: 200.0 mg/kg/injection, schedule: Q04DX003 (ip), vehicle: saline
[17] = dose: 400.0 mg/kg/injection, schedule: Q04DX003 (ip), vehicle: saline
[18] = dose: 75.0 mg/kg/injection, schedule: Q01DX001 (ip), vehicle: saline
[19] = dose: 150.0 mg/kg/injection, schedule: Q01DX001 (ip), vehicle: saline
[20] = dose: 100.0 mg/kg/injection, schedule: Q01DX009 (ip), vehicle: saline
[21] = dose: 200.0 mg/kg/injection, schedule: Q01DX009 (ip), vehicle: saline
[22] = dose: 400.0 mg/kg/injection, schedule: Q01DX009 (ip), vehicle: saline
[23] = dose: 100.0 mg/kg/injection, schedule: Q04DX002 (ip), vehicle: Klucel (hydroxypropylcellulose) (HPC)
[24] = dose: 100.0 mg/kg/injection, schedule: Q01DX001 (ip), vehicle: carboxymethylcellulose (CMC)
[25] = dose: 200.0 mg/kg/injection, schedule: Q01DX001 (ip), vehicle: carboxymethylcellulose (CMC)
[26] = dose: 400.0 mg/kg/injection, schedule: Q01DX001 (ip), vehicle: carboxymethylcellulose (CMC)
[27] = dose: 100.0 mg/kg/injection, schedule: Q01DX001 (ip), vehicle: Klucel (hydroxypropylcellulose) (HPC)
[28] = dose: 200.0 mg/kg/injection, schedule: Q01DX001 (ip), vehicle: Klucel (hydroxypropylcellulose) (HPC)
[29] = dose: 400.0 mg/kg/injection, schedule: Q01DX001 (ip), vehicle: Klucel (hydroxypropylcellulose) (HPC)

Measured: T/C

C=C1CC2(CCC23COC(=O)C3=C)OC1=O (stereo not given)
inactive: dose: 1.56 mg/kg/injection, schedule: Q01DX001 (ip), vehicle: other 98 % of control | dose: 3.12 mg/kg/injection, schedule: Q01DX001 (ip), vehicle: other 102 % of control and 109 % of control | dose: 6.25 mg/kg/injection, schedule: Q01DX001 (ip), vehicle: other 105 % of control and 121 % of control | dose: 12.5 mg/kg/injection, schedule: Q01DX001 (ip), vehicle: other 102 % of control

CN(C)/N=C/c1nccc2ccccc12
inactive: [1] 98 % of control | [2] 93 % of control | [3] 93 % of control

O=C(O)CCN(Cc1ccccc1)Cc1ccccc1
inactive: [4] 101 % of control | [5] 108 % of control | [6] 98 % of control | [7] 88 % of control | dose: 400.0 mg/kg/injection, schedule: Q01DX009 (ip), vehicle: saline with Tween-80 98 % of control | [8] 104 % of control

O=C(Nc1ccc(C(=O)O)cc1)Nc1ccccc1Cl
inactive: dose: 25.0 mg/kg/injection, schedule: Q04DX002 (ip), vehicle: saline 106 % of control | dose: 50.0 mg/kg/injection, schedule: Q04DX002 (ip), vehicle: saline 100 % of control | dose: 100.0 mg/kg/injection, schedule: Q04DX002 (ip), vehicle: saline + alcohol 114 % of control | dose: 100.0 mg/kg/injection, schedule: Q04DX002 (ip), vehicle: saline 118 % of control

COc1ccc(Br)c(CCC(C)C)c1OC
inactive: [9] 92 % of control | [10] 108 % of control | [11] 95 % of control | [12] 108 % of control | [13] 101 % of control | [14] 104 % of control

COc1ccc(OC)c2c1CC1CC(=O)OC21C (stereo not given)
inactive: [9] 97 % of control | [10] 97 % of control | [11] 92 % of control | [12] 97 % of control | [13] 97 % of control | [14] 97 % of control

CC(C)C1(O)C=CC(C)(O)CC1 (stereo not given)
inactive: [15] 102 % of control | [16] 102 % of control | [17] 107 % of control

Cc1noc(C)c1CON
inactive: [18] 100 % of control and 102 % of control | [19] 105 % of control | dose: 300.0 mg/kg/injection, schedule: Q01DX001 (ip), vehicle: saline 94 % of control and 91 % of control

CN(C)C(=O)c1cccc(N)c1
inactive: [20] 101 % of control | [15] 103 % of control | [21] 98 % of control | [16] 100 % of control | [22] 90 % of control | [17] 102 % of control

O=C(Nc1ccc(Cl)cc1Cl)Nc1cc(C(F)(F)F)ccc1Cl
inactive: [20] 98 % of control | [21] 95 % of control | [22] 92 % of control

CCCCCCCCP(=O)(CCCCCCCC)C(O)C(Cl)(Cl)Cl (stereo not given)
inactive: [5] 91 % of control | [7] 96 % of control | [8] 92 % of control

O=C1C2C3CCC(O3)C2C(=O)N1C(=O)N1C(=O)C2C3CCC(O3)C2C1=O (stereo not given)
inactive: dose: 25.0 mg/kg/injection, schedule: Q04DX002 (ip), vehicle: Klucel (hydroxypropylcellulose) (HPC) 101 % of control | dose: 50.0 mg/kg/injection, schedule: Q04DX002 (ip), vehicle: Klucel (hydroxypropylcellulose) (HPC) 94 % of control | [23] 111 % of control and 89 % of control

Cc1nn2c(C(=O)O)nnc2s1
inactive: [24] 93 % of control | [25] 98 % of control | [26] 93 % of control

O=C(O)c1ccc(CC2CCCC2)cc1
inactive: [27] 96 % of control | [10] 93 % of control | [28] 103 % of control | [12] 93 % of control | [29] 97 % of control | [14] 98 % of control

CC(C)(CO)N=Cc1ccccc1O.CC(C)(CO)N=Cc1ccccc1O.[Ni]
inactive: dose: 75.0 mg/kg/injection, schedule: Q01DX001 (ip), vehicle: other 110 % of control | dose: 150.0 mg/kg/injection, schedule: Q01DX001 (ip), vehicle: other 117 % of control

CC1C[N-]CC(C)C1.CC1C[N-]CC(C)C1.CC1C[N-]CC(C)C1.CC1C[N-]CC(C)C1.[Cl][Rh][Cl] (stereo not given)
inactive: dose: 1.5 mg/kg/injection, schedule: Q01DX009 (ip), vehicle: gum acacia 98 % of control | dose: 3.0 mg/kg/injection, schedule: Q01DX009 (ip), vehicle: gum acacia 96 % of control | dose: 6.0 mg/kg/injection, schedule: Q01DX009 (ip), vehicle: gum acacia 100 % of control | dose: 12.5 mg/kg/injection, schedule: Q04DX003 (ip), vehicle: gum acacia 100 % of control | dose: 25.0 mg/kg/injection, schedule: Q04DX003 (ip), vehicle: gum acacia 93 % of control

COc1ccc(C(=O)CCC(=O)O)c2ccccc12
inactive: [10] 92 % of control | [12] 93 % of control | [14] 88 % of control

O=C(c1ccc(Cl)cc1)c1nc2ccccc2[nH]1
inactive: [23] 95 % of control | dose: 200.0 mg/kg/injection, schedule: Q04DX002 (ip), vehicle: Klucel (hydroxypropylcellulose) (HPC) 95 % of control | dose: 400.0 mg/kg/injection, schedule: Q04DX002 (ip), vehicle: Klucel (hydroxypropylcellulose) (HPC) 103 % of control

Cc1cccc(C)c1N(N=O)C(=O)c1ccccc1
inactive: [18] 98 % of control | [19] 98 % of control

NCC1OC(n2cnc3c(N)ncnc32)CC1O (stereo not given)
inactive: dose: 50.0 mg/kg/injection, schedule: Q01DX001 (ip), vehicle: carboxymethylcellulose (CMC) 107 % of control | [24] 107 % of control | [25] 109 % of control | [26] 104 % of control

Cc1ccc(O)c(CCCO)c1
inactive: [1] 97 % of control | [2] 105 % of control | [3] 94 % of control

O=C(NCNC(=O)c1ccccc1)c1ccccc1
inactive: [10] 100 % of control | [11] 103 % of control | [12] 90 % of control | [13] 92 % of control | [14] 103 % of control

Oc1ccccc1C=NCCCN1CC1.[Ni+2].[O-]c1ccccc1C=NCCCN1CC1
inactive: [27] 114 % of control | [28] 87 % of control | [29] 104 % of control

CC(=O)OCCCCc1ccccc1
inactive: dose: 50.0 mg/kg/injection, schedule: Q01DX009 (ip), vehicle: saline with Tween-80 97 % of control | [4] 97 % of control | [6] 87 % of control

O=c1ssc(=Nc2ccccc2)n1-c1ccccc1
inactive: dose: 100.0 mg/kg/injection, schedule: Q04DX003 (ip), vehicle: gum acacia 103 % of control | dose: 200.0 mg/kg/injection, schedule: Q04DX003 (ip), vehicle: gum acacia 104 % of control | dose: 400.0 mg/kg/injection, schedule: Q04DX003 (ip), vehicle: gum acacia 101 % of control

CC(C)=CCC/C(C)=C\CC1=C(O)c2ccccc2C(=O)C1=O
inactive: dose: 100.0 mg/kg/injection, schedule: Q01DX001 (ip), vehicle: water 96 % of control | dose: 100.0 mg/kg/injection, schedule: Q04DX003 (ip), vehicle: acetone 102 % of control | dose: 200.0 mg/kg/injection, schedule: Q01DX001 (ip), vehicle: water 100 % of control | dose: 200.0 mg/kg/injection, schedule: Q04DX003 (ip), vehicle: acetone 94 % of control

CN(C)C(=O)c1ccccc1O
inactive: [9] 100 % of control | [11] 90 % of control | [13] 90 % of control

O=C1OC(=O)C2C1C1C3C(=O)C4C5C(=O)C3C2C5C41 (stereo not given)
inactive: dose: 75.0 mg/kg/injection, schedule: Q04DX002 (ip), vehicle: Klucel (hydroxypropylcellulose) (HPC) 97 % of control | dose: 150.0 mg/kg/injection, schedule: Q04DX002 (ip), vehicle: Klucel (hydroxypropylcellulose) (HPC) 97 % of control | dose: 300.0 mg/kg/injection, schedule: Q04DX002 (ip), vehicle: Klucel (hydroxypropylcellulose) (HPC) 97 % of control
